Laboratory results reported in patent US20150335647A1, “Methods of Increasing Liver Proliferation” (priority 2009, published 2015).

Legend:
[1] = tested on: type I BMP receptors, namely, ALK2, ALK3, and ALK6; settings: cited from earlier work
[2] = tested on: osteogenic differentiation induced by BMP4 or BMP6; settings: induced by BMP4 or BMP6 in vitro; compared with noggin; cited from earlier work
MAPK p38 activation = settings: cited from earlier work
[3] = tested on: BMP-mediated SMAD 1, 5 and 8 phosphorylation; settings: cited from earlier work
hepatocyte proliferation = test: BrdU hepatocyte proliferation after 2/3 hepatectomy in mice treated with dorsomorphin; type: in vivo; settings: 8 week old mice, dorsomorphin 10 mg/kg vs saline, injected 24 and 12 h prior to, at, and 12, 24, 36 h after 2/3 hepatectomy; measured at 36 and 48 hours
Description: Animals were used to examine the role of various members of BMP signaling in restoration of liver mass after injury. Mice were subjected to two-thirds (“⅔”) or massive eighty percent (80%) hepatectomy. Surgery was performed on adult mice at least 8 weeks of age. For surgery, mice were anesthetized with 100 mg/kg ketamine and 10 mg/kg xylazine which were injected intraperitoneally. […] This was repeated until the subject was unconscious. Hair was removed from the surgical site using a clipper and the skin was disinfected using aseptic technique and betadyne. The scrubbed area was rinsed with 70% alcohol. To avoid hypothermia, the animal was not wetted more than necessary. An incision was made with a sterile scissors at the level of the xiphiod approximately one centimeter toward the umbilicus. The peritoneum was entered with a scissors and the tip of the xiphoid was excised. For ⅔ hepatectomy, the liver was exteriorized through the incision via gentle pressure on the flanks over an area previously prepped. A 4-0 silk ligature was placed around the exteriorized portion of the liver and tied. The anterior portion of the liver distal to the tie was then excised. A 4-0 proline was used to close the fascia and a 4-0 nylon was used to close the skin in a subcuticular fashion. […]

[4] = Systemic toxicity of dorsomorphin administration for up to 60 days
Description: To provide clinical relevance for the findings discussed above, eight week old mice were injected with an antagonist of BMP signaling. Dorsomorphin was injected for 48 hours prior to, during, and after ⅔ hepatectomy. Specifically, dorsomorphin was injected multiple times at 24 and 12 hours prior to hepatectomy, at the time of hepatectomy, and 12, 24, and 36 hours after hepatectomy.

BMP signaling = settings: in vivo; cited from earlier work

c1cc(-c2cnn3cc(-c4ccc(OCCN5CCCCC5)cc4)cnc23)ccn1 [Dorsomorphin]
inhibition of type I BMP receptors ALK2, ALK3, and ALK6 [1]: selectively inhibiting
inhibition of osteogenic differentiation [2]: more potent than that seen with treatment with noggin
MAPK p38 activation (MAPK p38 activation): without affecting
BMP-mediated SMAD 1, 5 and 8 phosphorylation [3]: block
hepatocyte proliferation (BrdU incorporation) (hepatocyte proliferation): marked enhancement of hepatocyte proliferation
effect on bone marrow [4]: no effect
effect on growth [4]: no effect
effect on white blood cell count [4]: no effect
systemic toxicity [4]: did not produced systemic toxicity
dorsalization in zebrafish embryos (BMP signaling): effectively promote dorsalization
